System: 648629-189-R-J1-PDC complex spheroids viability
Assay: Anticancer human tumor 648629-189-R-J1-PDC patient-derived bladder carcinoma cell line growth inhibition [CLK]
Settings: for IC50: curve of first compound; for viability, T/C: stronger effect = lower value
Procedure, shortened: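 Multi-cell-type spheroids combined patient-derived tumor cells with HUVEC endothelial cells and human mesenchymal stem cells. Paired agents were dosed in half-log steps down from about clinical Cmax, or from 10 microM where Cmax was unknown.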

[1] = second compound 0.0316 µM, first compound 0.00316 µM
[2] = second compound 0.0316 µM, first compound 0.01 µM
[3] = second compound 0.0316 µM, first compound 0.0316 µM
[4] = second compound 0.0316 µM, first compound 0.1 µM
[5] = second compound 0.1 µM, first compound 0.00316 µM
[6] = second compound 0.1 µM, first compound 0.01 µM
[7] = second compound 0.1 µM, first compound 0.0316 µM
[8] = second compound 0.1 µM, first compound 0.1 µM
[9] = second compound 0.316 µM, first compound 0.00316 µM
[10] = second compound 0.316 µM, first compound 0.01 µM
[11] = second compound 0.316 µM, first compound 0.0316 µM
[12] = second compound 0.316 µM, first compound 0.1 µM
[13] = second compound 1 µM, first compound 0.00316 µM
[14] = second compound 1 µM, first compound 0.01 µM
[15] = second compound 1 µM, first compound 0.0316 µM
[16] = second compound 1 µM, first compound 0.1 µM
[17] = second compound 3.16 µM, first compound 0.00316 µM
[18] = second compound 3.16 µM, first compound 0.01 µM
[19] = second compound 3.16 µM, first compound 0.0316 µM
[20] = second compound 3.16 µM, first compound 0.1 µM
[21] = second compound 10 µM, first compound 0.00316 µM
[22] = second compound 10 µM, first compound 0.01 µM
[23] = second compound 10 µM, first compound 0.0316 µM
[24] = second compound 10 µM, first compound 0.1 µM
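For viability, T/C in this document: drug exposure lasted seven days before viability readout; 100% = DMSO vehicle control wells.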

## CCc1c2c(nc3ccc(O)cc13)-c1cc3c(c(=O)n1C2)COC(=O)[C@]3(O)CC + CN1CCN(c2cc(C(=O)Nc3cc4cc(-c5cnn(C)c5)ccc4cn3)ccn2)CC1
Second compound 0.0316 µM
  IC50: < 3.16 nM
Second compound 0.1 µM
  IC50: < 3.16 nM
Second compound 0.316 µM
  IC50: < 3.16 nM
Second compound 1 µM
  IC50: < 3.16 nM
Second compound 3.16 µM
  IC50: < 3.16 nM
Second compound 10 µM
  IC50: < 3.16 nM
[1]
  viability, T/C: 36.5%
[2]
  viability, T/C: 14.7%
[3]
  viability, T/C: 7.53%
[4]
  viability, T/C: 5.28%
Second compound 0.0316 µM, first compound 0.316 µM
  viability, T/C: 3.93%
Second compound 0.0316 µM, first compound 1 µM
  viability, T/C: 3.89%
[5]
  viability, T/C: 29%
[6]
  viability, T/C: 15.4%
[7]
  viability, T/C: 6.89%
[8]
  viability, T/C: 4.76%
Second compound 0.1 µM, first compound 0.316 µM
  viability, T/C: 4.13%
Second compound 0.1 µM, first compound 1 µM
  viability, T/C: 4.88%
[9]
  viability, T/C: 22.5%
[10]
  viability, T/C: 16.7%
[11]
  viability, T/C: 10.8%
[12]
  viability, T/C: 6.46%
Second compound 0.316 µM, first compound 0.316 µM
  viability, T/C: 6.71%
Second compound 0.316 µM, first compound 1 µM
  viability, T/C: 3.75%
[13]
  viability, T/C: 0.15%
[14]
  viability, T/C: 0.14%
[15]
  viability, T/C: 0.15%
[16]
  viability, T/C: 0.06%
Second compound 1 µM, first compound 0.316 µM
  viability, T/C: 0.21%
Second compound 1 µM, first compound 1 µM
  viability, T/C: 1.34%
[17]
  viability, T/C: 0.05%
[18]
  viability, T/C: 1.41%
[19]
  viability, T/C: 0.1%
[20]
  viability, T/C: 0.07%
Second compound 3.16 µM, first compound 0.316 µM
  viability, T/C: 0.3%
Second compound 3.16 µM, first compound 1 µM
  viability, T/C: 0.54%
[21]
  viability, T/C: 0.05%
[22]
  viability, T/C: 0.52%
[23]
  viability, T/C: 0.17%
[24]
  viability, T/C: 0.15%
Second compound 10 µM, first compound 0.316 µM
  viability, T/C: 0.22%
Second compound 10 µM, first compound 1 µM
  viability, T/C: 0.48%

## Cn1ncnc1[C@H]1c2n[nH]c(=O)c3cc(F)cc(c23)N[C@@H]1c1ccc(F)cc1 + CN1CCN(c2cc(C(=O)Nc3cc4cc(-c5cnn(C)c5)ccc4cn3)ccn2)CC1
Second compound 0.0316 µM
  IC50: > 100 nM
Second compound 0.1 µM
  IC50: > 100 nM
Second compound 0.316 µM
  IC50: < 0.316 nM
Second compound 1 µM
  IC50: < 0.316 nM
Second compound 3.16 µM
  IC50: < 0.316 nM
Second compound 10 µM
  IC50: < 0.316 nM
Second compound 0.0316 µM, first compound 0.000316 µM
  viability, T/C: 129%
Second compound 0.0316 µM, first compound 0.001 µM
  viability, T/C: 116%
[1]
  viability, T/C: 107%
[2]
  viability, T/C: 90.2%
[3]
  viability, T/C: 87.8%
[4]
  viability, T/C: 69.7%
Second compound 0.1 µM, first compound 0.000316 µM
  viability, T/C: 111%
Second compound 0.1 µM, first compound 0.001 µM
  viability, T/C: 97.2%
[5]
  viability, T/C: 94.8%
[6]
  viability, T/C: 93.5%
[7]
  viability, T/C: 87.7%
[8]
  viability, T/C: 81.2%
Second compound 0.316 µM, first compound 0.000316 µM
  viability, T/C: 46%
Second compound 0.316 µM, first compound 0.001 µM
  viability, T/C: 39.1%
[9]
  viability, T/C: 43.5%
[10]
  viability, T/C: 40.1%
[11]
  viability, T/C: 35.3%
[12]
  viability, T/C: 35.6%
Second compound 1 µM, first compound 0.000316 µM
  viability, T/C: 0.38%
Second compound 1 µM, first compound 0.001 µM
  viability, T/C: 0.8%
[13]
  viability, T/C: 0.73%
[14]
  viability, T/C: 0.22%
[15]
  viability, T/C: 0.2%
[16]
  viability, T/C: 1.42%
Second compound 3.16 µM, first compound 0.000316 µM
  viability, T/C: 0.1%
Second compound 3.16 µM, first compound 0.001 µM
  viability, T/C: 0.5%
[17]
  viability, T/C: 0.12%
[18]
  viability, T/C: 0.08%
[19]
  viability, T/C: 0.08%
[20]
  viability, T/C: 0.16%
Second compound 10 µM, first compound 0.000316 µM
  viability, T/C: 0.12%
Second compound 10 µM, first compound 0.001 µM
  viability, T/C: 0.13%
[21]
  viability, T/C: 0.82%
[22]
  viability, T/C: 0.14%
[23]
  viability, T/C: 0.13%
[24]
  viability, T/C: 0.15%

— PubChem BioAssay AID2060602 (Molecular Pharmacology Branch, DTP, NCI, 2025)
